Values of other authors in patent US12233082B2, “Compositions and methods for multi-use suppression and acquisition of viruses” (priority 2021, dated 2025).

Tests used:
[1] = test system: HIV-1; conditions: 500 mg valacyclovir twice daily, 12 weeks, vs placebo
[2] = test system: HSV-2
[3] = test system: HSV; conditions: 500 mg valacyclovir; expected for group 2 from previous research

## CC(C)[C@H](N)C(=O)OCCOCn1cnc2c(=O)[nH]c(N)nc21 [valacyclovir]
[1]
  reduction of HIV-1 viral load in plasma, on average: 0.37 log10 copies/mL
[2]; 500 mg valacyclovir daily, N=39 vs placebo N=50, PCR detectable shedding
  percentage of source partners with HSV-2 shedding in the genital tract (FIG. 1): decreased at a much quicker rate than those taking the placebo
[2]; 500 mg valacyclovir once daily, 8 months, source partners vs placebo
  risk of transmission of HSV-2: reduced the risk of transmission of HSV-2
[3]
  HSV PCR detectability rate median: 5% of days
